# Measured values reported in US20240287037A1, “CYCLOALKYL COMPOUNDS AND PHARMACEUTICAL COMPOSITIONS THAT MODULATE IKZF2” (Plexium, Inc., priority 2021, published 2024).
# What was measured:
# Type in all cases: cell-based
# [1] = target: IKZF1 (Ikaros) (Homo sapiens (Human), UniProt Q13422+Q96SW2); experiment: IKZF1 reporter degradation assay (HEK 293T IKZF1-mNeonGreen reporter cell line); details: HEK 293T reporter cells, 24 hour incubation
# Description: (§1) Polycistronic plasmids were constructed for the mammalian expression of fluorescent reporter fusions of human transcription factors IKZF1 (Ikaros), IKZF2 (Helios), and IKZF3 (Aiolos). The respective protein sequences had their C-terminal end joined to a GGGGS linker repeated three times followed by mNeonGreen, P2A sequence, and mScarlet. The DNA sequences of the open reading frames are as follows:
# (§2) IKZF1, IKZF2, and IKZF3 constructs were cloned into the UCOE Hygromycin expression vectors (Millipore Sigma). Reporter constructs were transfected using cationic lipid reagents into adherent HEK 293T cells and stable integrants were selected by treatment with 200 μg/mL hygromycin B. Clonal populations were obtained from the population of stable integrants either by limiting dilution or fluorescence activated cell sorting.
# (§3) The clonal stable cell lines were maintained under constant 200 μg/mL hygromycin B selection while being passaged for use in the degradation assays. […] The fluorescence intensity of the IKZF1/2/3-mNeonGreen (FITC channel) and mScarlet (PE channel) reporters were routinely analyzed by flow cytometry to confirm consistent expression levels between experiments.
# (§4) The IKZF1/IKZF2/IKZF3 degradation assays were carried out by harvesting the HEK 293T reporter cell lines and resuspending the cells in media formulated for reduced background fluorescence (FluoroBrite; Thermo Fisher). The respective cell lines were seeded at a density of 4000 cells/well into black-walled 384-well optical grade assay tissue culture plates. The cells were incubated overnight at 37° C. to allow for attachment to the assay plate. Dilutions of the compounds were prepared in DMSO from 10 mM compound stocks. The assay plates were treated with appropriate concentrations of the compounds by dispensing the DMSO dilutions in quadruplicate wells with an upper limit of 0.5% final DMSO.
# (§5) After 24 hour incubation with the compounds, the assay plates were imaged on an ImageXpress Pico microscopy system (cells maintained at 37° C. during imaging) to obtain the fluorescent readouts. The assay plates were imaged in the FITC and Tetramethylrhodamine (TRITC) channels to obtain the mNeonGreen fluorescence intensity (reporter degradation data) and mScarlet fluorescence intensity (for cell segmentation). 293T-IKZF1 and 293T-IKZF3 reporter cell lines were imaged with exposures of 500 milliseconds (ms) for both FITC and TRITC channels, while the 293T-IKZF2 reporter cell line was imaged with exposures of 1000 ms for FITC and 1250 ms for TRITC. The resulting data was analyzed with Cell Reporter Xpress software using the 2-channel cell scoring analysis with a “percent positive” readout. The TRITC channel was selected for the “nuclei” segmentation with a threshold of 20 while the FITC channel was selected for the “Marker 1” segmentation and a threshold of 100 for the IKZF and IKZF3 reporter lines. […] The minimum segmentation width was set to 6 micrometers and the maximum segmentation width was set to 15 micrometers for all cell lines. The DC50 calculations were determined by regression to best fit four-parameter logistic curves using GraphPad Prism.
# [2] = target: IKZF2 (Helios) (Homo sapiens (Human), UniProt Q96SW2+Q9UKS7); experiment: IKZF2 reporter degradation assay (HEK 293T IKZF2-mNeonGreen reporter cell line); details: 24 hour incubation; for inhibition at 1 µM: HEK-293T, 24 h
# IKZF2 (Helios), sequence (Q9UKS7 whole entry): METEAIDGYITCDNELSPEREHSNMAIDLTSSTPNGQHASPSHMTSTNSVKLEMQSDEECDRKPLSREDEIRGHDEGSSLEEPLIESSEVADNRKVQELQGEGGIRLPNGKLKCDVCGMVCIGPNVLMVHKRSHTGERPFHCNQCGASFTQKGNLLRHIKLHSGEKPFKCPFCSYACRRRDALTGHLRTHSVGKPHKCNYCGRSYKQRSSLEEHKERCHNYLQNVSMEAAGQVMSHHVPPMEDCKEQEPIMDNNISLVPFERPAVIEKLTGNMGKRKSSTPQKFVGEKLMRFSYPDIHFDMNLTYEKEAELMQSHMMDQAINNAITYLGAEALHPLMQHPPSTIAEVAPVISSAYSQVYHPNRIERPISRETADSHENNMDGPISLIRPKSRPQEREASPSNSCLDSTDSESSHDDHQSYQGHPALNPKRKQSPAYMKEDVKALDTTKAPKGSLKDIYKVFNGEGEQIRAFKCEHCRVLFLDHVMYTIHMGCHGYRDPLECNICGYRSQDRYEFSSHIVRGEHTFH
# IKZF2 (Helios), sequence (Q96SW2 whole entry): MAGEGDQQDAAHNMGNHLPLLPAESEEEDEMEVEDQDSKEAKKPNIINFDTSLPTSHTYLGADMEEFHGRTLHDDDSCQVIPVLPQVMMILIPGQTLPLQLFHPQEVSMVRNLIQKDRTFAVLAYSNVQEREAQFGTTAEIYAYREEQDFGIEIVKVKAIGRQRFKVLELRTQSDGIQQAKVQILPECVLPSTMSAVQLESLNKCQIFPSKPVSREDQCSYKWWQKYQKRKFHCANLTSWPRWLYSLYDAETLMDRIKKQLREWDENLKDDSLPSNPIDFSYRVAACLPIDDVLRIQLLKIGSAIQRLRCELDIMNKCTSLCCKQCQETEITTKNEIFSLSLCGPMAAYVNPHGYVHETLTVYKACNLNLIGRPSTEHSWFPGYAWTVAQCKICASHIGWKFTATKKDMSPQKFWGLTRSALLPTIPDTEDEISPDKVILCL
# IKZF2 (Helios), sequence (Q16531 whole entry partner): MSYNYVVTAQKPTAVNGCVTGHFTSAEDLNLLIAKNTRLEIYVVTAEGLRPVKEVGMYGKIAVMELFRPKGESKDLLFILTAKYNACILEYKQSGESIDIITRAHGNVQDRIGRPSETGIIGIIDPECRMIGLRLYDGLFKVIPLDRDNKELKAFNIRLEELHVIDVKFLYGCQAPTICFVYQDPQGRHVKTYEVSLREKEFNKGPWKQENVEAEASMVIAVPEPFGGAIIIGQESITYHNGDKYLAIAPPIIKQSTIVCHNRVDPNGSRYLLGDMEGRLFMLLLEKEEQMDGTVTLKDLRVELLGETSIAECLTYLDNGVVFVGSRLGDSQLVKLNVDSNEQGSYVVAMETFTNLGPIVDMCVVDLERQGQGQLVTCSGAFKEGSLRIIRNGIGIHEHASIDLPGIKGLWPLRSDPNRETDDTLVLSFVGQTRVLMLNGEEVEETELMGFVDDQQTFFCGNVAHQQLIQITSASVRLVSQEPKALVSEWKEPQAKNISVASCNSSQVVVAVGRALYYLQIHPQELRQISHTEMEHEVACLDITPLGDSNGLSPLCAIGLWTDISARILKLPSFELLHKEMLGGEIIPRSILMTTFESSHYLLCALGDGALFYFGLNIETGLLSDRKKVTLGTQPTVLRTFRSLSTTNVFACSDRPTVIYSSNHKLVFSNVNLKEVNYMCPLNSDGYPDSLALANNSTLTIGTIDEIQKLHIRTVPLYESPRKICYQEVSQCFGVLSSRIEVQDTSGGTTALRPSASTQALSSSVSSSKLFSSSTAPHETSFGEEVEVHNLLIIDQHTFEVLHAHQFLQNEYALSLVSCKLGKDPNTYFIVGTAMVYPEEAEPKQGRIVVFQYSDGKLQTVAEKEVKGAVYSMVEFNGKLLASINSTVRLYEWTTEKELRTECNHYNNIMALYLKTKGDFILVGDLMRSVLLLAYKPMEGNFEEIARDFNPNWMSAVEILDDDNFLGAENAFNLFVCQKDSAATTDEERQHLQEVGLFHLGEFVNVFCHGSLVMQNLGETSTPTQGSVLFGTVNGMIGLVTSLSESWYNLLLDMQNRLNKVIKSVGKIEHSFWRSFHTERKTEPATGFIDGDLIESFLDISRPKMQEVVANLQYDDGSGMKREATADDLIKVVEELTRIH
# Description: as §1, §2, §3, §4, §5
# [3] = target: IKZF3 (Aiolos) (Homo sapiens (Human), UniProt Q96SW2+Q9UKT9); experiment: IKZF3 reporter degradation assay (HEK 293T IKZF3-mNeonGreen reporter cell line); details: HEK 293T reporter cells, 24 hour incubation
# IKZF3 (Aiolos), sequence (Q9UKT9 whole entry): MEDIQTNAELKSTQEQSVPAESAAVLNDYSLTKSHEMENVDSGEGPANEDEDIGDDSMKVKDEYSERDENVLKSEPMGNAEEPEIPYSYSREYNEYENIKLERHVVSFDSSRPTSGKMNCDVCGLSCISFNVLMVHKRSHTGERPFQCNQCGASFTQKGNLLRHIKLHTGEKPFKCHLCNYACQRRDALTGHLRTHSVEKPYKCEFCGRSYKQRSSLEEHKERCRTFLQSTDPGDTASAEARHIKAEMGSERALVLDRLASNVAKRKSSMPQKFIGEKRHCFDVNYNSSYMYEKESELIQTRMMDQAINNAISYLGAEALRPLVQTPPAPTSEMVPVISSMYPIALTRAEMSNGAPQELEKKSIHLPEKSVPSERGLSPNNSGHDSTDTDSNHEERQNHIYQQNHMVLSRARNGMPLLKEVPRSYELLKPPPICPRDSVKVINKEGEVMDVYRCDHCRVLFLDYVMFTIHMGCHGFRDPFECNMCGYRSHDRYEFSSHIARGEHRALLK
# IKZF3 (Aiolos), sequence (Q96SW2 whole entry): as the sequence (Q96SW2 whole entry) above
# IKZF3 (Aiolos), sequence (Q16531 whole entry partner): as the sequence (Q16531 whole entry partner) above
# Description: as §1, §2, §3, §4, §5
# [4] = Table 3, HEK 293T reporter cells
# [5] = second (untitled) table after Table 3
# IKZF1 (Ikaros), sequence (Q13422 whole entry, the tested form may be a part): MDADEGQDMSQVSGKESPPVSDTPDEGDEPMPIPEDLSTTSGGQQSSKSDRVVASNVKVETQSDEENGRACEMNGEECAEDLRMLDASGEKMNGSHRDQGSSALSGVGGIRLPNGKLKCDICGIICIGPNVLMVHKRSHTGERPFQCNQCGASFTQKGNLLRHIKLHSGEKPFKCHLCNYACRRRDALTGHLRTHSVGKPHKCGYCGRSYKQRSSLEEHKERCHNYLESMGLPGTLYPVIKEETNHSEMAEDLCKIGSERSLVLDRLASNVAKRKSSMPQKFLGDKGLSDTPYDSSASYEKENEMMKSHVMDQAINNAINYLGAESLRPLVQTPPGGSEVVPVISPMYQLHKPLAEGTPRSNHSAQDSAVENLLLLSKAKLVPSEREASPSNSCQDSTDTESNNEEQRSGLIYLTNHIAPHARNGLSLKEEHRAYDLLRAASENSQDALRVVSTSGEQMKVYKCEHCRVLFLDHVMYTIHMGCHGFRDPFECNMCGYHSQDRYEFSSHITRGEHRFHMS
# IKZF1 (Ikaros), sequence (Q96SW2 whole entry, the tested form may be a part): as the sequence (Q96SW2 whole entry) above
# IKZF1 (Ikaros), sequence (Q16531 whole entry partner, the tested form may be a part): as the sequence (Q16531 whole entry partner) above
DC50 [1],DC50 ([2]; HEK 293T reporter cells),"inhibition at 1 µM [2, 4]","inhibition at 1 µM [2, 5]",DC50 [3],"IKZF2% Degradation @ 1 μM [2, 4]","IKZF2% Degradation @ 1 μM [2, 5]",IKZF3% Degradation @ 1 μM ([3]; 1 μM),Structure (SMILES)
> 30000 nM,2 nM,72.8%,72.8%,> 30000 nM,–,–,–,"CCOC1CCC(C2CN([C@H]3CCCC[C@@H]3Oc3ccc4c(c3)CN(C3CCC(=O)NC3=O)C4=O)C2)CC1 (stereo partly drawn) [Compound 19, 3-(5-(((1S,2S)-2-(3-(4-ethoxycyclohexyl)azetidin-1-yl)cyclohexyl)oxy)-1-oxoisoindolin-2-yl)piperidine-2,6-dione]"
> 30000 nM,3 nM,85%,85%,> 30000 nM,–,–,–,"O=C1CCC(N2Cc3cc(O[C@H]4CCCC[C@@H]4N4CC(C5CCCC(F)(F)C5)C4)ccc3C2=O)C(=O)N1 (stereo partly drawn) [Compound 20, 3-(5-(((1S,2S)-2-(3-(3,3-difluorocyclohexyl)azetidin-1-yl)cyclohexyl)oxy)-1-oxoisoindolin-2-yl)piperidine-2,6-dione]"
> 30000 nM,2 nM,86.7%,86.7%,6 nM,–,–,32.4%,"O=C1CCC(N2Cc3cc(O[C@H]4CCCC[C@@H]4N4CC(C5CCC(OC(F)F)CC5)C4)ccc3C2=O)C(=O)N1 (stereo partly drawn) [Compound 21, 3-(5-(((1S,2S)-2-(3-(4-(difluoromethoxy)cyclohexyl)azetidin-1-yl)cyclohexyl)oxy)-1-oxoisoindolin-2-yl)piperidine-2,6-dione]"
> 30000 nM,9 nM,82.6%,82.6%,> 30000 nM,–,–,–,"O=C1CCC(N2Cc3cc(O[C@H]4CCC[C@@H]4N4CC(C5CC5)C4)ccc3C2=O)C(=O)N1 (stereo partly drawn) [Compound 22, 3-(5-(((1S,2S)-2-(3-cyclopropylazetidin-1-yl)cyclopentyl)oxy)-1-oxoisoindolin-2-yl)piperidine-2,6-dione]"
> 30000 nM,18 nM,85.8%,85.8%,> 30000 nM,–,–,–,"O=C1CCC(N2Cc3c(ccc(O[C@H]4CCCC[C@@H]4N4CC(C5CC5)C4)c3F)C2=O)C(=O)N1 (stereo partly drawn) [Compound 24, 3-(5-(((1S,2S)-2-(3-cyclopropylazetidin-1-yl)cyclohexyl)oxy)-4-fluoro-1-oxoisoindolin-2-yl)piperidine-2,6-dione]"
> 30000 nM,10 nM,86.7%,86.7%,> 30000 nM,–,–,–,"O=C1CCC(N2Cc3c(ccc(O[C@H]4CCCC[C@@H]4N4CC(C5CCC5)C4)c3F)C2=O)C(=O)N1 (stereo partly drawn) [Compound 25, 3-(5-(((1S,2S)-2-(3-cyclobutylazetidin-1-yl)cyclohexyl)oxy)-4-fluoro-1-oxoisoindolin-2-yl)piperidine-2,6-dione]"
> 30000 nM,25 nM,77.8%,77.8%,> 30000 nM,–,–,–,"O=C1CCC(N2Cc3cc(O[C@H]4CCCC[C@@H]4N4CC(C5CC5)C4)c(F)cc3C2=O)C(=O)N1 (stereo partly drawn) [Compound 26, 3-(5-(((1S,2S)-2-(3-cyclopropylazetidin-1-yl)cyclohexyl)oxy)-6-fluoro-1-oxoisoindolin-2-yl)piperidine-2,6-dione]"
> 30000 nM,20 nM,84.1%,84.1%,> 30000 nM,–,–,–,"O=C1CCC(N2Cc3cc(O[C@H]4CCCC[C@@H]4N4CC(C5CCC5)C4)c(F)cc3C2=O)C(=O)N1 (stereo partly drawn) [Compound 27, 3-(5-(((1S,2S)-2-(3-cyclobutylazetidin-1-yl)cyclohexyl)oxy)-6-fluoro-1-oxoisoindolin-2-yl)piperidine-2,6-dione]"

# Continued, compound first:
Structure (SMILES),DC50 [1],DC50 ([2]; HEK 293T reporter cells),"inhibition at 1 µM [2, 4]","inhibition at 1 µM [2, 5]",DC50 [3],"IKZF2% Degradation @ 1 μM [2, 4]","IKZF2% Degradation @ 1 μM [2, 5]",IKZF3% Degradation @ 1 μM ([3]; 1 μM)
"O=C1CCC(N2Cc3cc(O[C@H]4CCCC[C@@H]4N4CC(C5CCCCC5)C4)ccc3C2=O)C(=O)N1 (stereo partly drawn) [Compound 1, 3-(5-(((1S,2S)-2-(3-cyclohexylazetidin-1-yl)cyclohexyl)oxy)-1-oxoisoindolin-2-yl)piperidine-2,6-dione]",> 30000 nM,4 nM,85.1%,85.1%,> 30000 nM,–,–,–
"O=C1CCC(N2Cc3cc(O[C@H]4CCCC[C@@H]4N4CC(C5CCC(F)(F)CC5)C4)ccc3C2=O)C(=O)N1 (stereo partly drawn) [Compound 2, 3-(5-(((1S,2S)-2-(3-(4,4-difluorocyclohexyl)azetidin-1-yl)cyclohexyl)oxy)-1-oxoisoindolin-2-yl)piperidine-2,6-dione]",> 30000 nM,3 nM,74.6%,74.6%,> 30000 nM,–,–,–
"O=C1CCC(N2Cc3cc(O[C@H]4CCCC[C@@H]4N4CC(C5CC5)C4)ccc3C2=O)C(=O)N1 (stereo partly drawn) [Compound 3, 3-(5-(((1S,2S)-2-(3-cyclopropylazetidin-1-yl)cyclohexyl)oxy)-1-oxoisoindolin-2-yl)piperidine-2,6-dione]",> 30000 nM,12 nM,67.7%,67.7%,> 30000 nM,–,–,–
"O=C1CCC(N2Cc3cc(O[C@H]4CCCC[C@@H]4N4CC(C5CCC5)C4)ccc3C2=O)C(=O)N1 (stereo partly drawn) [Compound 5, 3-(5-(((1S,2S)-2-(3-cyclobutylazetidin-1-yl)cyclohexyl)oxy)-1-oxoisoindolin-2-yl)piperidine-2,6-dione]",> 30000 nM,4 nM,85%,85%,> 30000 nM,–,–,–
"O=C1CCC(N2Cc3cc(O[C@H]4CCCC[C@@H]4N4CC(C5CCCC5)C4)ccc3C2=O)C(=O)N1 (stereo partly drawn) [Compound 6, 3-(5-(((1S,2S)-2-(3-cyclopentylazetidin-1-yl)cyclohexyl)oxy)-1-oxoisoindolin-2-yl)piperidine-2,6-dione]",> 30000 nM,3 nM,86.3%,86.3%,> 30000 nM,–,–,–
"O=C1CCC(N2Cc3cc(O[C@H]4CCC[C@@H]4N4CC(C5CCC(F)(F)CC5)C4)ccc3C2=O)C(=O)N1 (stereo partly drawn) [Compound 13, 3-(5-(((1S,2S)-2-(3-(4,4-difluorocyclohexyl)azetidin-1-yl)cyclopentyl)oxy)-1-oxoisoindolin-2-yl)piperidine-2,6-dione]",> 30000 nM,5 nM,75.9%,75.9%,> 30000 nM,–,–,–
"CC(C)OC1CCC(C2CN([C@H]3CCCC[C@@H]3Oc3ccc4c(c3)CN(C3CCC(=O)NC3=O)C4=O)C2)CC1 (stereo partly drawn) [Compound 16, 3-(5-(((1S,2S)-2-(3-((cis)-4-isopropoxycyclohexyl)azetidin-1-yl)cyclohexyl)oxy)-1-oxoisoindolin-2-yl)piperidine-2,6-dione]",> 30000 nM,1 nM,95.5%,95.5%,> 30000 nM,–,–,–
"CC(C)OC1CCC(C2CN([C@H]3CCCC[C@@H]3Oc3ccc4c(c3)CN(C3CCC(=O)NC3=O)C4=O)C2)CC1 (stereo partly drawn) [Compound 17, 3-(5-(((1S,2S)-2-(3-((trans)-4-isopropoxycyclohexyl)azetidin-1-yl)cyclohexyl)oxy)-1-oxoisoindolin-2-yl)piperidine-2,6-dione]",> 30000 nM,1 nM,–,–,> 30000 nM,96.7%,96.7%,–
"O=C1CCC(N2Cc3cc(O[C@H]4CCCC[C@@H]4N4CC(C5CC(F)(F)C5)C4)ccc3C2=O)C(=O)N1 (stereo partly drawn) [Compound 18, 3-(5-(((1S,2S)-2-(3-(3,3-difluorocyclobutyl)azetidin-1-yl)cyclohexyl)oxy)-1-oxoisoindolin-2-yl)piperidine-2,6-dione]",> 30000 nM,29 nM,71.1%,95.8%,> 30000 nM,–,–,–
